Data published in patent US10550080B2 (BRISTOL-MYERS SQUIBB COMPANY, priority 2016, dated 2020).

Columns and labels:
NaV1.7 = NaV1.7 (Homo sapiens (Human), UniProt Q15858); test: Automated electrophysiology, IonWorks Barracuda population patch clamp, NaV1.7 current (inactivated-state protocol); assay type: cell-based; settings: HEK 293 cells expressing NaV1.7; 600 sec compound incubation; read-out: NaV1.7 Barra IC50
Experimental: (§1) Automated Electrophysiology: Ion Works Barracuda population patch clamp (PPC). PPC measurements were performed using an IonWorks Barracuda instrument (Molecular Devices Corporation, Union City, Calif.) using either PatchPlate™ PPC substrates (Molecular Devices Corporation) with 64 apertures per well. The ability to average currents from 64 recordings from each well greatly improves data consistency and recording success rates in the measurement of NaV1.7 mediated ionic currents. Calculated leak current was digitally subtracted from the total cell NaV1.7 current for each sample point acquired.
(§2) NaV1.7 currents were elicited by a voltage clamp protocol designed to bias the NaV1.7 channels to their inactivated state as follows. From holding potential of −60 mV cells were briefly hyperpolarized to −100 mV for 1.25 sec, then stepped to −20 mV for 20 sec to inactivate the channels. This was followed by a relatively brief hyperpolarization to −100 mv for 300 ms, then a 20 msec test pulse to −20 mV to elicit the NaV1.7 current used to measure the pharmacology of all test compounds. Compounds were incubated for 600 sec between the pre- and post-compound reads. The external recording solution used was (in mM) 137 NaCl, 4 KCl, 1 MgCl2, 1.8 CaCl2, 10 Hepes, 10 glucose, pH to 7.4 with NaOH, and the internal solution used was (in mM) 100 K-gluconate, 40 KCl, 3.2 zMgCl2, 5 EGTA, 10 HEPES pH to 7.2 with KOH. The same solutions were used to record NaV1.5 currents, with the following voltage clamp protocol. NaV1.5 currents were elicited by a voltage clamp protocol designed to bias the NaV1.5 channels to their inactivated state as follows. From holding potential of −40 mV cells were briefly hyperpolarized to −100 mV for 300 ms, then stepped to −10 mV for 20 sec to inactivate the channels. This was followed by a relatively brief hyperpolarization to −100 mv for 30 ms, then a 20 msec test pulse to −10 mV to elicit the NaV1.5 current used to measure the pharmacology of all test compounds.
(§3) HEK 293 cells expressing NaV1.7 and NaV1.5 channels, were used (Essen Biosciences, Ann Arbor, Mich.). Cells were cultured in T-175 flasks and passaged every 2 to 3 days at 1:3 to 1:6 seeding density dilutions. Cells were grown to 70% to 90% confluence in a flask and removed from the incubator (37° C., 5% CO2) 1 to 3 days after plating. Growth medium was aspirated from the culture flasks. Cells were gently rinsed with 10 ml of PBS (Catalog number: 14190144, Gibco) to remove residual media. Next a total of 2 mL TrypLE (Gibco) solution was added, and the flasks containing cells were sat for 3 min at RT, after which, the cells became visibly rounded and were easily dislodged from the bottom of the flask with a few brief taps on a solid surface. A total of 8 mL of media was added to the flask to inactivate the TrypLE, and the mixture was centrifuged at 910 rpm for 4 min. The cell supernatant was decanted, and the cell pellets were resuspended in 5-6 mL of external solution followed by gentle triturations using a 10 ml pipette, and transferred to a 15 ml conical tube and immediately brought to the IW Barracuda instrument.
(§4) Peak membrane currents were analyzed with IW Barracuda software and exported to Excel for further analysis. Concentration response curve fitting was performed with BMS in-house software. IC50 values were obtained by fits of the Hill equation to the average percent inhibition data plotted versus compound concentration. […] Results are reported in Table 1 (NaV1.7 Barra IC50 in nM and NaV1.5 Barra IC50 in nM).

hNaV1.7 = hNaV1.7 (Homo sapiens (Human), UniProt Q15858); test: Ligand Binding Assay (LBA), radioligand displacement on hNaV1.7 HEK293 cell membranes; settings: 0.5 nM [3H] radioligand, 24 hours at room temperature; read-out: NaV1.7 LBA IC50
Chain of hNaV1.7 (Q15858 whole entry): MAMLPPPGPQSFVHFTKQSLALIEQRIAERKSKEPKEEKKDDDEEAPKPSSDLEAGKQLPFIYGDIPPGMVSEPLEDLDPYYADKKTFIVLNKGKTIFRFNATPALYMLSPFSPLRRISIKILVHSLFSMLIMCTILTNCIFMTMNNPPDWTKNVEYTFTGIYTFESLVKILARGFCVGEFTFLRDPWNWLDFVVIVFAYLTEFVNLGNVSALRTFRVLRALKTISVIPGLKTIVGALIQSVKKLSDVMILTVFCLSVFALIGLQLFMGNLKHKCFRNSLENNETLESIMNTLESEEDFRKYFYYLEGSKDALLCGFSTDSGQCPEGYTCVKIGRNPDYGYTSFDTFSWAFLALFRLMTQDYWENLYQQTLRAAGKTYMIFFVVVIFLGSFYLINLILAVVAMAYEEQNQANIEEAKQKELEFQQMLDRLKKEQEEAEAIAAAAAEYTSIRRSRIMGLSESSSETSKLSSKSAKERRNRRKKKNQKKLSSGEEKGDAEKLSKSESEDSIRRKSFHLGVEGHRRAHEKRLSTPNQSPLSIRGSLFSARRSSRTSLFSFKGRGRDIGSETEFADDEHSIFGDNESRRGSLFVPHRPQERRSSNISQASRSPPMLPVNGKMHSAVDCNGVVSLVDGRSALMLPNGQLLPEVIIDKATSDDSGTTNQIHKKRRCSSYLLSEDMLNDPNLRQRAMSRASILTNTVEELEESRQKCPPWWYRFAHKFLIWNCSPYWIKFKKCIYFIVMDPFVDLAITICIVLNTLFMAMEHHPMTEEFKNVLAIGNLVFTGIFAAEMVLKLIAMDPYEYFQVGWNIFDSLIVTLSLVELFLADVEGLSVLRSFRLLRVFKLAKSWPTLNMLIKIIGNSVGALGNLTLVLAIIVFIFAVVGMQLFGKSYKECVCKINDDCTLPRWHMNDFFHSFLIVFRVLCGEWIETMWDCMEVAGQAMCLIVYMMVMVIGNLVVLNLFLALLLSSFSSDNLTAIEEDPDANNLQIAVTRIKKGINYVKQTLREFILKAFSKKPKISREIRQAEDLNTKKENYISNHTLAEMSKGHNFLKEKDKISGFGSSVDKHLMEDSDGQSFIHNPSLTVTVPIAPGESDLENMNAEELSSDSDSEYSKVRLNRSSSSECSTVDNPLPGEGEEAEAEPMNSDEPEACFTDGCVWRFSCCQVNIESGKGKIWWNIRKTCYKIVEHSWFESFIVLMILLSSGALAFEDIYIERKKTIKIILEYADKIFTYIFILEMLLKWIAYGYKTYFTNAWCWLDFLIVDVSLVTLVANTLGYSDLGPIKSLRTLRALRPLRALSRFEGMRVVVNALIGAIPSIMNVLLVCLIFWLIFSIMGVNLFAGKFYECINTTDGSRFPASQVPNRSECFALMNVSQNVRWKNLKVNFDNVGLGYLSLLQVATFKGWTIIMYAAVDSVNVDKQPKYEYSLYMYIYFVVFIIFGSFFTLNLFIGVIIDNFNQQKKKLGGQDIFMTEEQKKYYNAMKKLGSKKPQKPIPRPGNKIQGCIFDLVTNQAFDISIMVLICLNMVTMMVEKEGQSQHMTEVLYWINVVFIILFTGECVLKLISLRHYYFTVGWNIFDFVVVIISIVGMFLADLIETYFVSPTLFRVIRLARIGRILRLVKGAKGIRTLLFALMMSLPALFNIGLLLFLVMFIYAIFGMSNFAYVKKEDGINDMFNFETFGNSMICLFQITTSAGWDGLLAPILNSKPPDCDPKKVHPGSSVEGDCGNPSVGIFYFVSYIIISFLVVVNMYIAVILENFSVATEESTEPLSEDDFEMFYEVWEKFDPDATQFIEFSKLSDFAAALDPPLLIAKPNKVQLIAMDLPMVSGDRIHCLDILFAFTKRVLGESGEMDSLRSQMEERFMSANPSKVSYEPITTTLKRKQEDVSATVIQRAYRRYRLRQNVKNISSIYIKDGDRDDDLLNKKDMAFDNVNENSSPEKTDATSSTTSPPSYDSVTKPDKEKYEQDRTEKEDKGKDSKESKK
Experimental: Ligand Binding Assay (LBA): hNaV1.7 binding affinities were determined with a filtration binding assay using purified membranes from HEK293 cells stably expressing hNaV1.7. HEK293 cells from a 10-stack cell culture flask (approximately 10^10 cells) were dissociated, frozen, and stored at −80° C. To prepare membranes, the frozen cell pellet was thawed and suspended in 6 ml hypotonic lysis buffer (50 mM HEPES, 0.1% mammalian protease inhibitor cocktail). 1 ml of resuspended cells was added to an additional 6 ml of lysis buffer and homogenized with 30 strokes of a tight pestle in a glass homogenizer. Homogenate was centrifuged at 1000×g for 10 minutes at 4° C. and the resulting supernatant was further centrifuged at 38,500×g for 60 minutes at 4° C. The resulting pellet was resuspended in binding buffer (50 mM HEPES, 130 mM NaCl, 5.4 mM KCl, 0.8 mM MgCl2, 5 mM glucose, pH 7.4) and needle homogenized with a 25 gauge needle. Protein concentration was determined with a BCA protein assay. Purified membranes were aliquoted, flash frozen in an ethyl alcohol dry ice bath, and stored at −80° C. To measure displacement of a radiolabeled ligand, 50 μg of purified hNaV1.7 HEK cell membranes were incubated with test compounds (eight concentrations, in duplicate) and 0.5 nM [3H] labeled radioligand in a 96 well plate for 24 hours at room temperature on a shaker. The total binding reaction volume was 250 μl, consisting of 200 μl purified hNaV1.7 HEK cell membranes, 25 μl test compound, and 25 μl radioligand. Non-specific binding was defined by 20 μM of a reference hNaV1.7 inhibitor. Binding reactions were terminated by filtration through GF/B filters presoaked in 0.5% polyethyleneamine. Filters were washed 5 times with 2 ml each of 4′C wash buffer (50 mM Tris-HCl, pH 7.4 at 4° C.). Bound radioactivity captured on the filters was counted on a liquid scintillation counter. Specific binding, expressed as % inhibition, was fit with Graphpad Prism software to determine binding IC50 values. Results are reported in Table 1 (NaV1.7 LBA IC50 in nM).

NaV1.5 = NaV1.5 (Homo sapiens (Human), UniProt Q14524); test: Automated electrophysiology, IonWorks Barracuda population patch clamp, NaV1.5 current (inactivated-state protocol); assay type: cell-based; settings: HEK 293 cells expressing NaV1.5; read-out: NaV1.5 Barra IC50
Chain of NaV1.5 (Q14524 whole entry): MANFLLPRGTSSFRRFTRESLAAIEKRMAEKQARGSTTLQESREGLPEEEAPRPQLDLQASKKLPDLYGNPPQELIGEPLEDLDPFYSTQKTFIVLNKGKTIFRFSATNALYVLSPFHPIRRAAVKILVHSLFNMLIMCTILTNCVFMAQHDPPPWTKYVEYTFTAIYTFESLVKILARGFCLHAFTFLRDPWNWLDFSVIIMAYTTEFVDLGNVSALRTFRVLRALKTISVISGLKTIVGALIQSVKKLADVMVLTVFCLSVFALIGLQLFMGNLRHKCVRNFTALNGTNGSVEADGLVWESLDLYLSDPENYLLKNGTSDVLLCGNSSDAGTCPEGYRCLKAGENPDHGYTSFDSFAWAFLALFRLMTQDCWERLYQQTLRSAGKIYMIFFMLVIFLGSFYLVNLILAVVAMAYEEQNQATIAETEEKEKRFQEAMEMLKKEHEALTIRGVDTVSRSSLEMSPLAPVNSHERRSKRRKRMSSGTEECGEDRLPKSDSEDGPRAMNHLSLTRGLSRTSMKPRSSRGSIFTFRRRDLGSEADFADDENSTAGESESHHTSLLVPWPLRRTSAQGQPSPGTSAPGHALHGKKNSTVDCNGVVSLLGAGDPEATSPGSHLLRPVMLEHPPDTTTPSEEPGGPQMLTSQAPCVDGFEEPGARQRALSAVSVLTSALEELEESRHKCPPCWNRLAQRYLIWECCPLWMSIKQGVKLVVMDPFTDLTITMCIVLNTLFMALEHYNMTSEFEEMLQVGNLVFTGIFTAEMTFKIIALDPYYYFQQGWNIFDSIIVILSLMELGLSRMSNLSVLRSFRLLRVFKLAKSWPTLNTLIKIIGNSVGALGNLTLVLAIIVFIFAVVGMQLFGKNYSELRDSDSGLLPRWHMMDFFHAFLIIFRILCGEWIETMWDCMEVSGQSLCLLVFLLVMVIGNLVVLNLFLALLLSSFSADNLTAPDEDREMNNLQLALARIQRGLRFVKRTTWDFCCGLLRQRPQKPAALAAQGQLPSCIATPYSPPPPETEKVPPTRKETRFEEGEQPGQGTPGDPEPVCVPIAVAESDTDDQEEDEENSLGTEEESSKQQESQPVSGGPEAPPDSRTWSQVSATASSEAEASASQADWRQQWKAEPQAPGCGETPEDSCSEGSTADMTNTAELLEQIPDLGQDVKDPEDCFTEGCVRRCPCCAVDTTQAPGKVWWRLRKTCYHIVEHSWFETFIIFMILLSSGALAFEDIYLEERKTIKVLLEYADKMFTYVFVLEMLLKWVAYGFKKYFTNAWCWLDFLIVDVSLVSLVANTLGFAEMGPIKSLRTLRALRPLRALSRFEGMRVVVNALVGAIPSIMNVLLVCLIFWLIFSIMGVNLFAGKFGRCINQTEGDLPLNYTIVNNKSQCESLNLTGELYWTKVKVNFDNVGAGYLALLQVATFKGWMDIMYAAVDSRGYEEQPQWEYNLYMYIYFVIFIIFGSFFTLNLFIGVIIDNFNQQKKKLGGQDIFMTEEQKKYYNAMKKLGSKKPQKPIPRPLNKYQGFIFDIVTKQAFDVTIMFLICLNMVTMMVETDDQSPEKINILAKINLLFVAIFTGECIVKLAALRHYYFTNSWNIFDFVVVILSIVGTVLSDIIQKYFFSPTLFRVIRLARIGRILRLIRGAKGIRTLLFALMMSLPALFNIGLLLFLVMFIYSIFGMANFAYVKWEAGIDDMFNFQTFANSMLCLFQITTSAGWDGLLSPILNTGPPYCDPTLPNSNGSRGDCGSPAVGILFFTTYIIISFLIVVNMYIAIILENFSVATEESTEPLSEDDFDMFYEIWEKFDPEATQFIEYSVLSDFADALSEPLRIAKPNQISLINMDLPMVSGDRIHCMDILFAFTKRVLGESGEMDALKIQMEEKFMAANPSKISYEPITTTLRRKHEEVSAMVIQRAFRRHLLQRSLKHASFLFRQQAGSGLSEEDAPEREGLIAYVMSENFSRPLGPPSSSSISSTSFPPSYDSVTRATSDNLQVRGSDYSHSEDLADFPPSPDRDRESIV
Experimental: as §1, §2, §3, §4

Chain of NaV1.7 (Q15858 whole entry): as the sequence (Q15858 whole entry) above

SMILES	IC50 (NaV1.7) [nM]	IC50 (hNaV1.7) [nM]	IC50 (NaV1.5) [nM]
CC(C)COc1ccc(-c2cn(C)c3cc(C(=O)NS(C)(=O)=O)ccc23)cn1 [Example 23, 3-(6-Isobutoxypyridin-3-yl)-1-methyl-N-(methylsulfonyl)-1H-indole-6-carboxamide]	183	468	> 30000
CC(C)COc1ncc(-c2cn(C)c3cc(C(=O)NS(C)(=O)=O)ccc23)cc1Cl [Example 2, 3-(5-Chloro-6-isobutoxypyridin-3-yl)-1-methyl-N-(methylsulfonyl)-1H-indole-6-carboxamide]	90	91	18300
Cn1cc(-c2cccc(C(F)(F)F)c2)c2ccc(C(=O)NS(C)(=O)=O)cc21 [Example 13, 1-Methyl-N-(methylsulfonyl)-3-(3-(trifluoromethyl)phenyl)-1H-indole-6-carboxamide]	1420	290	> 30000
CCS(=O)(=O)NC(=O)c1ccc2c(-c3cnc(OCC(C)C)c(Cl)c3)cn(C)c2c1 [Example 36, 3-(5-Chloro-6-isobutoxypyridin-3-yl)-N-(ethylsulfonyl)-1-methyl-1H-indole-6-carboxamide]	154	38	5670
CC(C)COc1ncc(-c2cn(C)c3cc(C(=O)NS(C)(=O)=O)c(F)cc23)cc1Cl [Example 42, 3-(5-Chloro-6-isobutoxypyridin-3-yl)-5-fluoro-1-methyl-N-(methylsulfonyl)-1H-indole-6-carboxamide]	524	11	7180
CCc1cccc(-c2cn(C)c3cc(C(=O)NS(C)(=O)=O)ccc23)c1 [Example 17, 3-(3-Ethylphenyl)-1-methyl-N-(methylsulfonyl)-1H-indole-6-carboxamide]	220	440	> 30000
Cn1cc(-c2ccc(C(F)(F)F)cc2)c2cc(F)c(C(=O)NS(C)(=O)=O)cc21 [Example 46, 5-Fluoro-1-methyl-N-(methylsulfonyl)-3-(4-(trifluoromethyl)phenyl)-1H-indole-6-carboxamide]	49	84	> 30000
Cn1cc(-c2ccc(C(F)(F)F)cc2)c2ccc(C(=O)NS(=O)(=O)C3CC3)cc21 [Example 18, N-(cyclopropylsulfonyl)-1-methyl-3-(4-(trifluoromethyl)phenyl)-1H-indole-6-carboxamide]	109	77	8720
CC(C)COc1ncc(-c2c3ccc(C(=O)NS(=O)(=O)C4CC4)cc3nn2C)cc1Cl [Example 41, 3-(5-Chloro-6-isobutoxypyridin-3-yl)-N-(cyclopropylsulfonyl)-2-methyl-2H-indazole-6-carboxamide]	195	673	11300
CC(C)COc1ncc(-c2cn(C(C)C)c3cc(C(=O)NS(C)(=O)=O)ccc23)cc1Cl [Example 29, 3-(5-Chloro-6-isobutoxypyridin-3-yl)-1-isopropyl-N-(methylsulfonyl)-1H-indole-6-carboxamide]	703	89	1490
CC(C)c1cccc(-c2cn(C)c3cc(C(=O)NS(C)(=O)=O)ccc23)c1 [Example 16, 3-(3-Isopropylphenyl)-1-methyl-N-(methylsulfonyl)-1H-indole-6-carboxamide]	427	217	> 30000
Cn1cc(-c2ccc(C(F)F)cc2)c2ccc(C(=O)NS(=O)(=O)C3CC3)cc21 [Example 31, N-(cyclopropylsulfonyl)-3-(4-(difluoromethyl)phenyl)-1-methyl-1H-indole-6-carboxamide]	69	321	> 30000
Cn1cc(-c2ccc(C(F)(F)F)cc2Cl)c2ccc(C(=O)NS(C)(=O)=O)cc21 [Example 11, 3-(2-Chloro-4-(trifluoromethyl)phenyl)-1-methyl-N-(methylsulfonyl)-1H-indole-6-carboxamide]	604	750	8640
CC(C)COc1ccc(-c2cn(C)c3cc(C(=O)NS(C)(=O)=O)c(F)cc23)cn1 [Example 44, 5-Fluoro-3-(6-isobutoxypyridin-3-yl)-1-methyl-N-(methylsulfonyl)-1H-indole-6-carboxamide]	104	86	18700
Cn1cc(-c2cccc(F)c2F)c2ccc(C(=O)NS(C)(=O)=O)cc21 [Example 3, 3-(2,3-Difluorophenyl)-1-methyl-N-(methylsulfonyl)-1H-indole-6-carboxamide]	2860	4940	> 30000
CC(C)COc1ncc(-c2cn(C)c3cc(C(=O)NS(=O)(=O)C4CC4)c(F)cc23)cc1Cl [Example 43, 3-(5-Chloro-6-isobutoxypyridin-3-yl)-N-(cyclopropylsulfonyl)-5-fluoro-1-methyl-1H-indole-6-carboxamide]	310	3.4	4850
CC(C)COc1ccc(-c2cn(C)c3cc(C(=O)NS(=O)(=O)C4CC4)c(F)cc23)cn1 [Example 45, N-(Cyclopropylsulfonyl)-5-fluoro-3-(6-isobutoxypyridin-3-yl)-1-methyl-1H-indole-6-carboxamide]	59	26	3700
CC(C)COc1ncc(-c2cn(C)c3cc(C(=O)NS(=O)(=O)C(C)(C)C)ccc23)cc1Cl [Example 38, N-(tert-butylsulfonyl)-3-(5-chloro-6-isobutoxypyridin-3-yl)-1-methyl-1H-indole-6-carboxamide]	1300	156	21900
Cn1cc(-c2ccc(C(F)F)cc2)c2cc(F)c(C(=O)NS(=O)(=O)C3CC3)cc21 [Example 49, N-(Cyclopropylsulfonyl)-3-(4-(difluoromethyl)phenyl)-5-fluoro-1-methyl-1H-indole-6-carboxamide]	38	146	9670
